From publication PMC11863921 (BMC Biology, 2025)
Entries after “also recorded” stand apart in the source; their conditions may differ.

Columns and labels:
AsolLGR4(short) = assay: CRE reporter gene assay in HEK-293T cells transfected with AsolLGR4(short); type: cell-based, A. cf. solaris; conditions: HEK-293T cells with AsolLGR4(short), any concentration tested
From the text: (§1) The coding sequences for AsolRXFP/LGR3, AsolLGR4(short), and AsolLGR4(long) lacking a native N-terminal signal peptide were optimized for mammalian codon usage, but with the addition of a 5′ nucleotide sequence encoding an N-terminal bovine prolactin precursor signal peptide followed by a FLAG tag. The coding sequences for each construct are presented in Additional file 16: Dataset S9. Following the addition of a Kozak sequence (GCCACC) before the start codon of each coding sequence, the receptor cDNAs were synthesized in pUC57 vectors (GenScript, Hong Kong) with BamHI and XhoI restriction sites and Gateway‐compatible attB5 and attB2 sites at both ends to also allow recloning into pcDNA3.1/Zeo ( +) or Gateway (Invitrogen) vectors. pUC57 vectors were first digested with BamHI and XhoI restriction enzymes together with pcDNA3.1/Zeo ( +) followed by agarose gel purification of the digested DNA. Receptor constructs were ligated into the cut pcDNA3.1/Zeo ( +) vector to produce pcDNA-AsolRXFP/LGR3, pcDNA − AsolLGR4(short), and pcDNA − AsolLGR4(long). The sequences were confirmed by using Sanger sequencing on both strands. The AsolRXFP/LGR3 sequence was cloned into a lentiviral vector under the control of the constitutive human Ef1α promoter using Gateway technology (Invitrogen), according to the manufacturer’s instructions. […]

AsolLGR4(long) = assay: CRE reporter gene assay in HEK-293T cells transfected with AsolLGR4(long); type: cell-based, A. cf. solaris; conditions: HEK-293T cells with AsolLGR4(long), any concentration tested
From the text: as §1

[1] = test system: ovarian fragments of A. cf. solaris; assay: In vitro spawning assay with ovarian fragments of A. cf. solaris; conditions: 1 h; for gonadotropic activity (shedding of mature eggs / spawning): 2 × 10^−10–2 × 10^−6 M, four separate assays
From the text: Adult A. cf. solaris were collected from the Great Barrier Reef by Pacific Marine Group divers associated with the Great Barrier Reef Marine Park Authority (GBRMPA) before being transported to the University of the Sunshine Coast aquarium facility. Animals were briefly maintained in a re-circulating protein-skimmed and aerated saltwater system of approximately 1500 L. The animals used were approximately 25–55 cm in diameter and kept unfed for the duration of the experiment. The gender and ovarian maturation stage was determined by using a minor gonad tissue biopsy technique and, thereafter, animals were individually segregated in a flowthrough aerated tank filled with approximately 55 L of filtered seawater for a minimum of 24 h to recover and acclimatize.
AsoRGP1 and AsoRGP2 were synthesized as described previously. In addition, a modified form of AsoRGP2 was synthesized in which the N-terminal residue of the A-chain (glutamine, Q) was substituted with pyroglutamate (pQ), recognizing the possibility of this potential post-translational modification. […] In vitro spawning assays using ovarian fragments were performed following procedures described previously. In brief, the ovaries were excised and cut using scissors into small fragments containing only a few lobes. The ovarian fragments were then incubated in artificial seawater containing RGP-type peptides at a range of concentrations (2 × 10^−10–2 × 10^−6 M) for 1 h. As a control experiment, ovarian fragments were incubated in artificial seawater alone. The samples were examined to determine whether or not in vitro spawning had occurred and were scored as follows: (+ + +) spawning occurred and most oocytes had matured; (+ +) about 50% of oocytes had matured, ( +) a few oocytes had matured and ( −): no spawning occurred. […] Means ± standard error of mean (SEM) were determined from four separate assays using ovaries from four different animals.

Acanthaster cf. solaris Relaxin-like gonad-stimulating peptide 1 [AsolRGP1]
cAMP activity / CRE reporter gene activation (AsolLGR4(short)): no significant increase in cAMP levels; also recorded: Neither AsolRGP1 nor AsolRGP2 induced CRE reporter gene activation
cAMP activity / CRE reporter gene activation (AsolLGR4(long)): no significant increase in cAMP levels; also recorded: Neither AsolRGP1 nor AsolRGP2 induced CRE reporter gene activation
gonadotropic activity (shedding of mature eggs / spawning) [1]: exhibited gonadotropic activity; also recorded: dose-dependent induction of spawning

Acanthaster cf. solaris Relaxin-like gonad-stimulating peptide 2 [AsolRGP2]
cAMP activity / CRE reporter gene activation (AsolLGR4(short)): no significant increase in cAMP levels; also recorded: Neither AsolRGP1 nor AsolRGP2 induced CRE reporter gene activation
cAMP activity / CRE reporter gene activation (AsolLGR4(long)): no significant increase in cAMP levels; also recorded: Neither AsolRGP1 nor AsolRGP2 induced CRE reporter gene activation
gonadotropic activity (shedding of mature eggs / spawning) [1]: exhibited gonadotropic activity; also recorded: dose-dependent induction of spawning
relative potency in inducing shedding of mature eggs / spawning ([1]; semi-quantitative, compared with RGP1 or unmodified RGP2): slightly less potent than RGP1
